Legend:
Assay in all cases: selective drug sensitivity score (sDSS, relative to normal bone marrow) (sDSS (score)); higher = more potent and effective on the cell line relative to normal bone marrow cells
Settings in all cases: 72 h
MOLT-16 = test system: MOLT-16
HPB-ALL = test system: HPB-ALL
KASUMI-9 = test system: KASUMI-9
RCH-ACV = test system: RCH-ACV
KASUMI-10 = test system: KASUMI-10
NALM-16 = test system: NALM-16
NALM-6 = test system: NALM-6
ALL-SIL = test system: ALL-SIL
MOLT-14 = test system: MOLT-14
380 = test system: 380
CCRF-CEM = test system: CCRF-CEM
REH = test system: REH
697 = test system: 697
KASUMI-2 = test system: KASUMI-2
RPMI-8402 = test system: RPMI-8402
MHH-CALL-4 = test system: MHH-CALL-4
COG-LL-394h = test system: COG-LL-394h
DND-41 = test system: DND-41
COG-LL-402h = test system: COG-LL-402h
COG-LL-355h = test system: COG-LL-355h
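Note: ALL cell lines in 384-well plates, five doses spanning 10,000-fold, each plate scaled between vehicle and 100 µmol/L benzalkonium chloride controls, sDSS an adapted area-under-curve metric.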

Structure (SMILES) | selective drug sensitivity score (MOLT-16) | selective drug sensitivity score (HPB-ALL) | selective drug sensitivity score (KASUMI-9) | selective drug sensitivity score (RCH-ACV) | selective drug sensitivity score (KASUMI-10) | selective drug sensitivity score (NALM-16) | selective drug sensitivity score (NALM-6) | selective drug sensitivity score (ALL-SIL) | selective drug sensitivity score (MOLT-14) | selective drug sensitivity score 380 | selective drug sensitivity score (CCRF-CEM) | selective drug sensitivity score (REH) | selective drug sensitivity score 697 | selective drug sensitivity score (KASUMI-2) | selective drug sensitivity score (RPMI-8402) | selective drug sensitivity score (MHH-CALL-4) | selective drug sensitivity score (COG-LL-394h) | selective drug sensitivity score (DND-41) | selective drug sensitivity score (COG-LL-402h) | selective drug sensitivity score (COG-LL-355h)
O=C(Nc1cc(Cl)cc2c1[nH]c1cnccc12)c1cccnc1 [PS-1145] (top concentration 25000 nM) | -0.16 | -0.46 | 0.44 | 3.04 | 3.44 | -0.46 | -0.46 | -0.46 | -0.46 | -0.46 | -0.46 | 1.94 | 0.44 | -0.46 | -0.46 | -0.46 | -0.46 | -0.46 | -0.46 | -0.46
CC(=O)O[C@H]1C(=O)[C@@]2(C)[C@H]([C@H](OC(=O)c3ccccc3)[C@]3(O)C[C@H](OC(=O)[C@H](O)[C@@H](NC(=O)c4ccccc4)c4ccccc4)C(C)=C1C3(C)C)[C@]1(OC(C)=O)CO[C@@H]1C[C@@H]2O [Paclitaxel] (top concentration 1000 nM) | 21.7 | 14.1 | 19.6 | 21.8 | 11.5 | 14.1 | 16.7 | 20.8 | 19 | 19.9 | 18.3 | 23.1 | 22.4 | 18.3 | 16 | 7.24 | 6.84 | 2.04 | 12.8 | 5.14
CCCCCCCCCCCCCCCCCCOP(=O)([O-])OC1CC[N+](C)(C)CC1 [Perifosine] (top concentration 2500 nM) | -0.36 | 3.64 | -0.36 | 2.34 | -0.36 | -0.36 | -0.36 | -0.36 | -0.36 | -0.16 | -0.16 | -0.36 | -0.36 | 8.74 | -0.36 | -0.16 | -0.36 | -0.36 | 4.04 | 0.64
CC[C@@H]1C(=O)OC[C@@H]1Cc1cncn1C [Pilocarpine] (top concentration 40000 nM) | 1.94 | 7.34 | -1.56 | -1.56 | -1.56 | -1.56 | -1.56 | -0.76 | -0.36 | -1.56 | -1.56 | -1.56 | -1.56 | -1.56 | -1.56 | -1.56 | -1.56 | 4.34 | -1.56 | -1.56
Nc1cccc2c1C(=O)N(C1CCC(=O)NC1=O)C2=O (stereo not given) [Pomalidomide] (top concentration 10000 nM) | -0.26 | 1.44 | 6.84 | 9.54 | 0.24 | -0.26 | -0.26 | -0.26 | -0.26 | -0.26 | -0.26 | 2.74 | 1.74 | -0.26 | -0.26 | 7.54 | 0.04 | 4.24 | 0.64 | 5.24
Cc1nc(=O)c2cc(CN(C)c3ccc(C(=O)N[C@@H](CCC(=O)O)C(=O)O)s3)ccc2[nH]1 [Raltitrexed] (top concentration 1000 nM) | 25.3 | 13.4 | 15.2 | 29.2 | 18.1 | 9.12 | 23 | 17.3 | 17.7 | 20.7 | 23.3 | 24.3 | 25.8 | 15.8 | 23.4 | 16.1 | 2.12 | 16.5 | 8.22 | 4.82
C=CC(=O)Nc1cccc(Nc2nc(Nc3ccc(N4CCN(C(C)=O)CC4)cc3OC)ncc2C(F)(F)F)c1 [Rociletinib] (top concentration 10000 nM) | 2.04 | 1.74 | 5.14 | 2.54 | 6.94 | 4.04 | 4.94 | 3.64 | 2.54 | -0.16 | 2.44 | 0.84 | 3.54 | -2.46 | 2.24 | 2.14 | 5.24 | -0.56 | 5.24 | 5.84
CC(C)N(CCCNC(=O)Nc1ccc(C(C)(C)C)cc1)C[C@H]1O[C@@H](n2cc(Br)c3c(N)ncnc32)[C@H](O)[C@@H]1O [SGC0946] (top concentration 10000 nM) | 0.78 | 1.18 | 0.28 | -0.82 | -0.12 | -0.62 | -0.82 | -0.92 | -0.02 | -1.12 | 0.88 | 5.18 | -0.02 | -1.12 | 1.78 | -1.12 | -0.82 | -1.02 | -0.62 | 1.88
CC[C@H](CO)Nc1nc(NCc2ccccc2)c2ncn(C(C)C)c2n1 [Seliciclib] (top concentration 10000 nM) | 0.26 | -0.64 | -0.44 | 2.16 | 0.86 | -1.04 | -1.04 | 3.06 | -1.04 | -1.04 | 2.06 | -0.14 | 1.16 | -1.04 | -0.54 | 0.16 | -1.04 | 9.26 | -1.04 | 2.46
